Patent publication US20100003217A1, “Compounds and Pharmaceutical Compositions for the Treatment of Viral Infections” (priority 2008, published 2010)
Values joined by “and” are separate entries in the source; they are usually repeats but may differ in a detail not shown here. Identical values can stand only once.

Columns and labels:
[1] = Metabolite profile in rat feces; type: in vivo, male Sprague-Dawley rats; details: for Percent of Dose, Feces 0-24 h: after [14C]Compound 1; for % AD / % HPLC (percent of HPLC peak area in the sample extract) / fecal component, % of the administered dose (% AD): 24 h collection; for % of the total fecal excretion / fecal component, % of the administered dose (% AD): rat feces
Protocol: Pooled samples were prepared for the 24 h time interval from Groups 1C and 2C by combining a fixed percentage of the total weight of each individual animal sample homogenate for each group. The aliquots were pooled in a 15-mL polypropylene centrifuge tube. To the pooled sample (approximately 3 g each), 4.5 mL of MeOH-water (70:30) was added. The sample was vortexed for one minute, sonicated for 10 minutes, and then centrifuged at 5700×g for 10 minutes. The supernatant was transferred to a tube and the total volume of the supernatant was measured. The extraction procedure was repeated two additional times. The radioactivity in each extract was determined by LSC of duplicate aliquots (20 μL each) for extraction recovery. A portion (10% of total volume) of each extract was pooled for analysis by LSC and HPLC. The combined extracts were diluted (1:4) with aqueous mobile phase and analyzed using HPLC method 1 to obtain the metabolic profile. For comparing the in vitro with the in vivo metabolism data, these same fecal samples were analyzed by HPLC method 2.
Percent of the administered dose (% AD) for parent drug and each metabolite at each collection period=(% of the total radioactivity in the sample attributed to the metabolite)*(total radioactivity expressed as % of the administered dose, recovered during the corresponding collection period).
The samples were analyzed by HPLC with radiochemical detection. The distribution of metabolites as % of the administered dose was derived from these analyses. Both pooled fecal extracts were also analyzed by HPLC method 2. Metabolites R^1, R^2, R^3, R^4, R^5, R^6, R^7 and R^8 were characterized based on retention time.

[2] = Metabolite profiling in rat liver microsomes; type: in vitro ADME; parameters: key: +: peak detected; ?: peak observed; ND: not detected; details: 50 μM Compound 1, 2 hours
Protocol: Preliminary identification of putative metabolites was conducted by comparing the retention time of observed metabolites with retention times obtained with chemically synthesized standards using the following HPLC-UV method:
Incubations with liver microsomes, liver cytosol or pig liver esterase were conducted in a final volume of 0.1 mL per incubation time point. Pooled microsomal protein (1.0 mg/mL) suspended in incubation buffer (0.1 M potassium phosphate, pH 7.4) was incubated for 2 hours at 37° C. with 50 μM Compound 1 from a stock solution in DMSO (final DMSO concentration was 0.1%); the microsomal reaction was initiated by the addition of an NADPH regenerating system (1.3 mM NADP^+, 3.3 mM glucose-6-phosphate, 0.4 U/ml glucose-6-phosphate dehydrogenase, and 3.3 mM MgCl2, final concentrations). Incubations with no NADPH or no protein served as controls. Reactions were terminated by the addition of 0.1 mL of stop solution (acetonitrile). The samples were vortex-mixed for 30 sec and then centrifuged at 10,000×g for 10 min. The supernatant was dried using a Labconco CentriVap concentrator and the dry residue reconstituted in water, transferred to an HPLC glass vial and analyzed by HPLC-UV method 2 (described above).
Results: Preliminary identification was accomplished by comparing LC elution of metabolites with that of available synthetic standards of putative metabolites (FIG. 2). […]

[3] = tested on: primary hepatocytes (human, monkey, rat); assay: Primary hepatocytes, statements pooled over human, monkey and rat; type: in vitro ADME
Protocol: Primary hepatocytes: Freshly isolated cells from animal and human liver were obtained in suspension on ice. Cells were pelleted by centrifugation at 70-75×g (rat) or 95-90×g (monkey and human) and resuspended at 0.8 million cells per mL of platting medium (William's E supplemented with 5% FBS, 0.5% penicillin-streptomycin, 1% L-glutamine, 4 μg/mL insulin and 1 μM dexamethasone). Multi-well collagen I-coated plates (rat tail collagen type I; 12- or 6-well) were then seeded by addition of 1 mL (12-well; 0.8 million cells/well) or 2 mL (6-well; 1.6 million cells/well) of cell suspension. […]
Cellular extracts were prepared by centrifugation at 16,000 RCF using an Eppendorf microcentrifuge (Eppendorf, Model 5415D) for 10 min to remove cellular debris. An aliquot of 5-10 μL of the supernatant was added to 5 mL of EcoLite™ (MP, Irvine, Calif.) liquid scintillation cocktail and radioactivity measured by liquid scintillation counting (LSC) using a Beckman Coulter LS6500 multipurpose liquid scintillation counter (Beckman Instruments, Fullerton, Calif.). […] Prior to HPLC analysis (described below), radioactivity of the concentrated extracts was measured by LSC using 5 μL aliquots. Extraction recovery was then determined by comparing total radioactivity in extracts before and after drying. […] Samples with poor recovery (<85%) were re-analyzed when possible. […]

[4] = group 1C (IV) pooled fecal extract
[5] = group 2C (PO) pooled fecal extract

Row | SMILES | Total excretion (% AD), feces ([1]; IV (1C)) | Percent of Dose, Feces 0-24 h ([1]; IV) | Percent of Dose, Feces 0-24 h ([1]; Oral) | Total excretion (% AD), feces ([1]; PO (2C)) | % AD [1, 4] | % HPLC (percent of HPLC peak area in the sample extract) [1, 4] | % AD [1, 5] | % HPLC (percent of HPLC peak area in the sample extract) [1, 5] | % of the total fecal excretion ([1]; IV dose 50 mg/kg) | fecal component, % of the administered dose (% AD) ([1]; IV dose 50 mg/kg, 50 mg/kg) | % of the total fecal excretion ([1]; PO dose 100 mg/kg) | fecal component, % of the administered dose (% AD) ([1]; PO dose 100 mg/kg, 100 mg/kg) | In vitro metabolite profile in microsomes following incubation with Compound 1 (peak detection) [2] | metabolites in the incubation medium following incubation with [^14C]-2′-C-methyl guanosine ([3]; primary hepatocytes, 10 μM or 1 μM) | % of the total intracellular radioactivity ([3]; extracts of primary hepatocytes, all three species, 4-24 hours, [^14C]-Compound 1)
1 | C[C@@]1(O)[C@H](O)[C@@H](CO)O[C@H]1n1cnc2c(=O)[nH]c(N)nc21 [2′-C-methyl guanosine, 9-(2-C-methyl-β-D-ribofuranosyl)guanine, reference compound] | 16.0 % AD | 16.0% of Dose | 25.6% of Dose | 25.6 % AD | 16.0 % AD | 41.0% | 25.6 % AD | 28.1% | 41.0% | 16 % AD | 28.1% | 25.6 % AD and 26 % AD | + | No metabolites were observed | –
2 | CC(C)(CO)C(=O)SCCOP(=O)(NCc1ccccc1)OC[C@H]1O[C@@H](n2cnc3c(=O)[nH]c(N)nc32)[C@](C)(O)[C@@H]1O (mixture of isomers) [Compound 1, 3-hydroxy-2,2-dimethyl-thiopropionic acid S-(2-{[(2R,3R,4R,5R)-5-(2-amino-6-oxo-1,6-dihydro-purin-9-yl)-3,4-dihydroxy-4-methyl-tetrahydro-furan-2-ylmethoxy]-benzylamino-phosphoryloxy}-ethyl) ester] | 19.7 % AD | 19.7% of Dose | 65.6% of Dose | 65.6 % AD | 19.7 % AD | 50.6% | 65.6 % AD | 71.9% | 50.6% | 19.7 % AD and 20 % AD | 71.9% | 65.6 % AD and 66 % AD | + | – | –
3 | C[C@@]1(O)[C@H](O)[C@@H](COP(=O)(O)OP(=O)(O)OP(=O)(O)O)O[C@H]1n1cnc2c(=O)[nH]c(N)nc21 [Compound 7, [(2R)-2-methyl-β-D-ribofuranosyl]guanine 5′-triphosphate] | – | – | – | – | – | – | – | – | – | – | – | – | – | – | 60-81%
